Target: Egt1 (Neurospora crassa, UniProt Q7RX33)
Experiment: oxygen consumption, NeoFox oxygen electrode
Format: biochemical

Chain of Egt1 (Q7RX33 whole entry): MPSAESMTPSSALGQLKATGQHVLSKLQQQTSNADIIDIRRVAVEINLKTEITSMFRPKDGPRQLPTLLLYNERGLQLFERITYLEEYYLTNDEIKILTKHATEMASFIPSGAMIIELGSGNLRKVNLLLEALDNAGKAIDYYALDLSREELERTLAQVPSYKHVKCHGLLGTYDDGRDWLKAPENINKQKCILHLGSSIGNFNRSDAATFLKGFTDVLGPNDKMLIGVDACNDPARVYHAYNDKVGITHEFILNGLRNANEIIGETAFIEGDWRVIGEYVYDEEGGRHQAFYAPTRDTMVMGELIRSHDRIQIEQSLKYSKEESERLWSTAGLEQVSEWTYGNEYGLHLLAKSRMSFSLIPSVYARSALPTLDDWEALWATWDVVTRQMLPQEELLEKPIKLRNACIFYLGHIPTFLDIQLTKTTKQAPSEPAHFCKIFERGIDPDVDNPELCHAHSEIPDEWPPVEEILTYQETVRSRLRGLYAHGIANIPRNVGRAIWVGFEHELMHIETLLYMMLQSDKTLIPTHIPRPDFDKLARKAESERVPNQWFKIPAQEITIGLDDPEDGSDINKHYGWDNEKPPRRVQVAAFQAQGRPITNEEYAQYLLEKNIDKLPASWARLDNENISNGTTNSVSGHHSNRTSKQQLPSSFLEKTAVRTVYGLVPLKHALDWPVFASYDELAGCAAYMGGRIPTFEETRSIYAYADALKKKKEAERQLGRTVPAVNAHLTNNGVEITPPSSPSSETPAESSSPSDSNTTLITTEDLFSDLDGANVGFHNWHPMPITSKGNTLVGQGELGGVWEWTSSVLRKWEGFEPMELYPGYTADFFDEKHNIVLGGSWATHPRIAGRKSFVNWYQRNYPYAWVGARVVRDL

Row | Km [mM] | SMILES
1 | 7.68 ± 1.11 | N[C@@H](CCC(=O)N[C@@H](CS)C(=O)O)C(=O)O [γ-Glu-Cys]
2 | 0.436 ± 0.03 | C[N+](C)(C)[C@@H](Cc1cnc[nH]1)C(=O)[O-] [compound 2, hercynine]

— article PMC4201327 (Organic letters, 2014)
